# Where a SMILES comes first, the peptide text is derived from it.
# Tests used:
# B*3501 = B*3501 (Homo sapiens, UniProt P01889, A329T/A93T/A95T/C349S/D201E/D98Y/E176V/E187L/E204Q/E69T/I218V/K202T/L119I/Q94N/R155S/R180L/S121R/S35A/S48A/T118I/V127L/V306I/V36M/Y140S/Y91F); test: Competition binding assay using soluble HLA class I; conditions: for Ki: HLA-B3501 section
# DRB1*0301 = molecular target: T1, DRB1*0301 (Homo sapiens, UniProt P01903+P01911, A100K/A102G/A103R/A169T/F55Y/I96L/K41T/L162R/M171V/P40S/Q125H/Q178H/Q39Y/R42S/S66N/T106N/T262R/W38E/Y61H); test: Competition binding assay using soluble HLA class II
# T1 construct: endogenous in cells; HLA-DR was extracted from cell lysates on an LB3.1 antibody column
# B*0702 = molecular target: T2, B*0702 (Homo sapiens, UniProt P01889); test: Competition binding assay using soluble HLA class I
# T2 construct: endogenous in cells
# DRB1*0401 = molecular target: T3, DRB1*0401 (Homo sapiens, UniProt P01903+P01911, A100K/A169T/F76Y/I96L/K127E/L162R/M171V/N62H/P40V/Q125Y/R42H/S133A/S149N/S66Y/V115G/V209L/W38E); test: Competition binding assay using soluble HLA class II; conditions: HLA-DRB1*0401; individual experiment or mean of several
# T3 construct: endogenous in cells; host or cells: cell lysate
# DRB1*0101 = molecular target: T4, DRB1*0101 (Homo sapiens, UniProt P01903+P01911, A100R/D57E/F55L/F60I/F76Y/I96L/L162R/M171V/P40L/Q125E/R42F/V115G/Y59C); test: as above
# T4 construct: endogenous in cells; host or cells: cell lysate
# HLA-Cw06 = molecular target: T5, HLA-Cw06 (Homo sapiens, UniProt P10321, A176E/A330V/C350S/L171W/L180W/L218V/M285V/M309V/M331V/N104K/P208H/Q277E/Q291P/R121W/R243W/S101N/S123Y/S297R/T329A/T363A/V319A/V328M); test: HLA class I competition cell-based binding assay
# T5 construct: endogenous in cells
# HLA-Cw07 = molecular target: T6, HLA-Cw07 (Homo sapiens, UniProt P10321); test: HLA class I competition cell-based binding assay
# T6 construct: endogenous in cells
# HLA-A03 = molecular target: T7, HLA-A03 (Homo sapiens, UniProt P04439); test: Competition binding assay using soluble HLA class I; conditions: HLA-A1101 section; read-out: binds A0301 (asterisk in Ki column)
# T7 construct: endogenous in cells
smiles,measurement,setting,value
CC[C@H](C)[C@H](NC(=O)[C@H](CCC(N)=O)NC(=O)CNC(=O)CNC(=O)CNC(=O)[C@@H]1CCCN1C(=O)[C@@H](N)Cc1ccccc1)C(=O)N[C@H](C(=O)NCC(=O)O)C(C)C,Ki,B*3501,2600 nM
CC(C)C[C@H](NC(=O)[C@H](CCCNC(=N)N)NC(=O)[C@@H]1CCCN1C(=O)CN)C(=O)NCC(=O)N[C@H](C(=O)N[C@@H](CCCNC(=N)N)C(=O)N[C@@H](C)C(=O)N[C@H](C(=O)N[C@@H](CCCNC(=N)N)C(=O)N[C@@H](CCCCN)C(=O)N[C@H](C(=O)N[C@@H](CO)C(=O)N[C@@H](CCC(=O)O)C(=O)N[C@@H](CCCNC(=N)N)C(=O)O)[C@@H](C)O)[C@@H](C)O)C(C)C (H-GPRLGVRATRKTSER-OH; N-terminus and C-terminus assumed),IC50,DRB1*0301,18900 nM
CC(C)C[C@H](NC(=O)[C@H](CCCNC(=N)N)NC(=O)[C@@H](NC(=O)[C@H](CO)NC(=O)[C@@H](NC(=O)[C@H](CCC(=O)O)NC(=O)[C@H](C)NC(=O)[C@@H]1CCCN1C(=O)[C@@H](N)[C@@H](C)O)[C@@H](C)O)C(C)C)C(=O)O,IC50,B*0702,375 nM
same,Ki,"B*0702; Ki (nM), HLA-B0702 section",375 nM
same,Ki,"B*0702; binds B0702 with Ki < 1000 nM (asterisk), asterisk in the HLA-B3501 section",< 1000 nM
same,IC50,"B*3501; Table 18, HLA-B7 binding peptides",1640 nM
CC(C)C[C@H](NC(=O)[C@@H](NC(=O)[C@@H](NC(=O)[C@@H](N)CC(C)C)C(C)C)C(C)C)C(=O)N[C@@H](C)C(=O)N[C@H](C(=O)N[C@@H](C)C(=O)N[C@H](C(=O)N1CCC[C@H]1C(=O)N1CCC[C@H]1C(=O)NCC(=O)N[C@@H](CO)C(=O)N[C@H](C(=O)N[C@H](C(=O)N[C@H](C(=O)O)C(C)C)[C@@H](C)O)C(C)C)[C@@H](C)O)[C@@H](C)O (H-LVVLATATPPGSVTV-OH; N-terminus and C-terminus assumed),IC50,DRB1*0301,4230 nM
same,IC50,DRB1*0401,4 nM
same,IC50,DRB1*0101,73 nM
CC(C)[C@H](NC(=O)[C@H](CCCNC(=N)N)NC(=O)[C@H](C)NC(=O)[C@H](C)NC(=O)[C@H](C)NC(=O)[C@H](CC(=O)O)NC(=O)[C@H](CO)NC(=O)[C@H](CCC(=O)O)NC(=O)[C@@H]1CCCN1C(=O)[C@@H](NC(=O)[C@H](Cc1ccc(O)cc1)NC(=O)[C@H](Cc1c[nH]cn1)NC(=O)[C@@H](NC(=O)[C@@H]1CCCN1)[C@@H](C)O)C(C)C)C(=O)N[C@H](C(=O)O)[C@@H](C)O,IC50,DRB1*0301,4950 nM
CC(C)C[C@H](NC(=O)[C@H](Cc1ccccc1)NC(=O)[C@H](CCCCN)NC(=O)CNC(=O)[C@H](Cc1ccc(O)cc1)NC(=O)[C@@H](NC(=O)[C@H](CO)NC(=O)[C@H](Cc1ccc(O)cc1)NC(=O)[C@@H](N)[C@@H](C)O)[C@@H](C)O)C(=O)O,Ki,HLA-Cw06,4860 nM
same,Ki,HLA-Cw07,239 nM
CC[C@H](C)[C@H](NC(=O)[C@@H]1CCCN1C(=O)[C@H](CCC(N)=O)NC(=O)[C@@H](N)CCCNC(=N)N)C(=O)N1CCC[C@H]1C(=O)N[C@@H](CCCCN)C(=O)N[C@@H](C)C(=O)N[C@@H](CCCNC(=N)N)C(=O)N[C@@H](CCCNC(=N)N)C(=O)O (H-RQPIPKARR-OH),Ki,HLA-A03,< 1000 nM
CC(C)C[C@H](NC(=O)[C@@H](N)Cc1ccc(O)cc1)C(=O)N[C@@H](CC(C)C)C(=O)N1CCC[C@H]1C(=O)N[C@@H](CCCNC(=N)N)C(=O)N[C@@H](CCCNC(=N)N)C(=O)NCC(=O)N1CCC[C@H]1C(=O)N[C@@H](CCCNC(=N)N)C(=O)O (H-YLLPRRGPR-OH),Ki,HLA-A03,< 1000 nM
CC[C@H](C)[C@H](NC(=O)[C@H](CC(C)C)NC(=O)[C@H](CCCNC(=N)N)NC(=O)[C@H](C)NC(=O)[C@@H]1CCCN1C(=O)[C@H](CCCCN)NC(=O)[C@H](CCCNC(=N)N)NC(=O)CN)C(=O)N[C@H](C(=O)N[C@@H](Cc1ccccc1)C(=O)O)C(C)C (H-GRKPARLIVF-OH),Ki,HLA-Cw06,8960 nM
same,Ki,HLA-Cw07,753 nM
CC[C@H](C)[C@H](NC(=O)[C@@H]1CCCN1C(=O)[C@H](C)NC(=O)[C@H](CC(C)C)NC(=O)[C@H](CC(C)C)NC(=O)[C@@H](N)CCCNC(=N)N)C(=O)N[C@H](C(=O)N[C@@H](C)C(=O)N[C@@H](Cc1ccc(O)cc1)C(=O)O)[C@@H](C)O,Ki,HLA-Cw07,4820 nM
C[C@H](NC(=O)[C@H](CCC(=O)O)NC(=O)[C@@H]1CCCN1C(=O)[C@H](Cc1c[nH]cn1)NC(=O)[C@H](CCCCN)NC(=O)[C@H](CCCNC(=N)N)NC(=O)[C@@H](N)Cc1ccccc1)C(=O)N[C@H](C(=O)N[C@@H](Cc1ccc(O)cc1)C(=O)O)[C@@H](C)O (H-FRKHPEATY-OH; N-terminus and C-terminus assumed),Ki,HLA-Cw07,0.2 nM
CC[C@H](C)[C@H](NC(=O)[C@H](Cc1ccc(O)cc1)NC(=O)[C@@H](N)CCCCN)C(=O)N[C@@H](CCSC)C(=O)N[C@@H](C)C(=O)N[C@@H](CS)C(=O)N[C@@H](CCSC)C(=O)N[C@@H](CO)C(=O)N[C@@H](C)C(=O)O,Ki,HLA-Cw07,7210 nM
CC[C@H](C)[C@H](NC(=O)[C@@H]1CCCN1C(=O)[C@@H](NC(=O)[C@H](C)NC(=O)[C@H](CCCCN)NC(=O)CNC(=O)[C@H](Cc1ccc(O)cc1)NC(=O)[C@@H](N)Cc1ccccc1)[C@@H](C)CC)C(=O)N[C@@H](CCC(=O)O)C(=O)N[C@H](C(=O)O)C(C)C,Ki,HLA-Cw06,5690 nM
same,Ki,HLA-Cw07,31 nM
CSCC[C@H](NC(=O)[C@H](CC(C)C)NC(=O)[C@H](C)NC(=O)[C@H](CC(=O)O)NC(=O)[C@@H](NC(=O)[C@H](C)NC(=O)[C@@H](NC(=O)[C@@H](NC(=O)[C@@H](NC(=O)[C@@H](N)C(C)C)C(C)C)C(C)C)C(C)C)[C@@H](C)O)C(=O)N[C@H](C(=O)NCC(=O)N[C@@H](Cc1ccc(O)cc1)C(=O)N[C@H](C(=O)NCC(=O)O)[C@@H](C)O)[C@@H](C)O,IC50,DRB1*0301,93 nM
CSCC[C@H](NC(=O)CNC(=O)[C@H](CCC(=O)O)NC(=O)[C@H](CC(N)=O)NC(=O)CNC(=O)[C@H](Cc1ccc(O)cc1)NC(=O)[C@@H](N)CC(C)C)C(=O)NCC(=O)N[C@@H](Cc1c[nH]c2ccccc12)C(=O)N[C@@H](C)C(=O)O (H-LYGNEGMGWA-OH; N-terminus and C-terminus assumed),Ki,HLA-Cw07,5110 nM
CC(C)C[C@H](NC(=O)[C@H](C)NC(=O)CNC(=O)[C@H](C)NC(=O)[C@@H](NC(=O)CN)C(C)C)C(=O)N[C@H](C(=O)N[C@@H](C)C(=O)N[C@@H](Cc1ccccc1)C(=O)O)C(C)C (H-GVAGALVAF-OH; N-terminus and C-terminus assumed),Ki,HLA-Cw07,6160 nM
CSCC[C@H](NC(=O)[C@H](CCCNC(=N)N)NC(=O)[C@H](Cc1c[nH]cn1)NC(=O)CN)C(=O)N[C@@H](C)C(=O)N[C@@H](Cc1c[nH]c2ccccc12)C(=O)N[C@@H](CC(=O)O)C(=O)N[C@@H](CCSC)C(=O)N[C@@H](CCSC)C(=O)N[C@@H](CCSC)C(=O)N[C@@H](CC(N)=O)C(=O)N[C@@H](Cc1c[nH]c2ccccc12)C(=O)N[C@@H](CO)C(=O)N1CCC[C@H]1C(=O)N[C@H](C(=O)O)[C@@H](C)O,IC50,DRB1*0301,919 nM
same,IC50,DRB1*0101,183 nM
CC(C)C[C@H](NC(=O)[C@@H](NC(=O)CNC(=O)[C@H](CO)NC(=O)[C@H](C)NC(=O)[C@H](CCCNC(=N)N)NC(=O)[C@H](CS)NC(=O)[C@H](CCCNC(=N)N)NC(=O)[C@H](CCCNC(=N)N)NC(=O)[C@@H](N)Cc1ccc(O)cc1)C(C)C)C(=O)O (H-YRRCRASGVL-OH),Ki,HLA-Cw07,83 nM
CC[C@H](C)[C@H](NC(=O)[C@@H](N)CC(N)=O)C(=O)N[C@H](C(=O)N[C@@H](CC(=O)O)C(=O)N[C@H](C(=O)N[C@@H](CCC(N)=O)C(=O)N[C@@H](Cc1ccc(O)cc1)C(=O)N[C@@H](CC(C)C)C(=O)N[C@@H](Cc1ccc(O)cc1)C(=O)O)C(C)C)C(C)C,Ki,HLA-Cw07,56 nM
CC[C@H](C)[C@H](N)C(=O)N[C@@H](CCCNC(=N)N)C(=O)N[C@@H](CO)C(=O)N[C@@H](CC(C)C)C(=O)N[C@H](C(=O)N[C@@H](CCC(=O)O)C(=O)N[C@@H](CCCNC(=N)N)C(=O)N[C@@H](CC(C)C)C(=O)N[C@@H](Cc1ccc(O)cc1)C(=O)O)[C@@H](C)O,Ki,HLA-Cw06,318 nM
same,Ki,HLA-Cw07,25 nM
CSCC[C@H](N)C(=O)NCC(=O)N[C@@H](CO)C(=O)N[C@@H](CO)C(=O)N[C@@H](Cc1ccc(O)cc1)C(=O)NCC(=O)N[C@@H](Cc1ccccc1)C(=O)N[C@@H](CCC(N)=O)C(=O)N[C@@H](Cc1ccc(O)cc1)C(=O)O,Ki,B*3501,2610 nM
CC[C@H](C)[C@H](NC(=O)[C@@H](NC(=O)[C@H](CO)NC(=O)[C@@H](NC(=O)[C@H](CC(=O)O)NC(=O)[C@H](CC(C)C)NC(=O)CNC(=O)[C@H](CCCNC(=N)N)NC(=O)[C@H](Cc1ccc(O)cc1)NC(=O)[C@@H](N)Cc1ccc(O)cc1)C(C)C)C(C)C)C(=O)O (H-YYRGLDVSVI-OH),Ki,HLA-Cw07,87 nM
N=C(N)NCCC[C@H](NC(=O)[C@H](CCC(N)=O)NC(=O)[C@@H](N)CC(=O)O)C(=O)N1CCC[C@H]1C(=O)N[C@@H](Cc1ccc(O)cc1)C(=O)N[C@@H](CS)C(=O)N[C@@H](Cc1c[nH]c2ccccc12)C(=O)N[C@@H](Cc1c[nH]cn1)C(=O)N[C@@H](Cc1ccc(O)cc1)C(=O)O (H-DQRPYCWHY-OH; N-terminus and C-terminus assumed),Ki,HLA-Cw07,710 nM
